pIC50: −log10 of the molar value. Values joined by “and” are separate entries in the source; they are usually repeats but may differ in a detail not shown here. Equal entries are not always repeated. Where two headings read alike, the source gives them in different places.
How the values were obtained:
MCF7ERαHA cells = experiment: Growth of tamoxifen-resistant MCF7ERαHA cells (MTS); assay type: cell-based, human; conditions: 5 μM, Dox, 1 pM E2, 4 days
Procedure: FIG. 19 illustrates that TPSF, but not OHT, is capable of inhibiting E2-ERα-dependent growth of tamoxifen-resistant breast cancer cells as measured in MCF7ERαHA cells. MCF7ERαHA cells were maintained for 4 days in 6× stripped CD-FBS, seeded into 12 well plates containing or lacking Dox (0.5 μg/ml), E2 (1 pM) OHT (5 μM) and TPSF (5 μM), grown for 4 days and assayed using MTS with a standard curve for cell number. Cells in ethanol and DMSO vehicle alone were set to 100%. Data represents the average of 3 experiments±SEM. The difference between the cells incubated with TPSF+E2+Dox compared to the cells in Dox, and E2 and to the cells in Dox, E2 and OHT was significant (P<0.05 using Student's two-tailed T test).
(§1) Assays for Cell Growth and Viability. Cells were maintained in the media listed above containing CD-treated serum for at least 4 days prior to the experiment. To minimize cell aggregation, MCF-7 cells were harvested in 10 mM Hepes, pH 7.4, 1 mM EDTA. Other cell lines were harvested in trypsin-EDTA. 1,000 cells were plated into each well of a 96 well plate. For slow growing ZR-75 cells, 2,000 cells were plated/well. The cells were maintained in medium containing CD-treated serum for 24 hours. […] After 4 days viable cells were determined using a cell viability test, Promega CellTiter 96 Aqueous One Solution Cell Proliferation Assay (MTS) (Promega, Wis.).

BT474 cells = experiment: E2-ERα-dependent growth of BT474 cells (MTS); assay type: cell-based; conditions: Homo sapiens, BT-474, 96 h, 100 pM E2, 4 days, read-out: IC50 for inhibition of E2-ERα-dependent growth of BT474 cells
Procedure: (§2) FIG. 20 illustrates further activity of TPSF in the inhibition of tamoxifen-resistant human breast cancer cells. The effects of TPSF on the E2-ERα-dependent growth of tamoxifen-resistant BT474 and ZR-75 cells were assessed. […] The cells were maintained in medium containing 10% CD-FBS (ZR-75) or 10% CD-CS (BT474) containing or lacking 100 pM E2 and the indicated concentrations of TPSF. Viable cells were measured by comparison to a standard curve of cell number versus absorbance using the MTS assay. Data represents the average of at least 4 wells. IC50 values for TPSF inhibition of cell growth were calculated by curve-fitting using Sigma Plot.
as §1, with “hours. At 24 hours the medium was changed and E2 and DMSO vehicle or TPSF in DMSO was added.” for “hours.”

ZR-75 cells = experiment: E2-ERα-dependent growth of ZR-75 cells (MTS); assay type: cell-based; conditions: Homo sapiens, ZR75, 96 h, 100 pM E2, 4 days, read-out: IC50 for inhibition of E2-ERα-dependent growth of ZR-75 cells
Procedure: as §2
as §1, with “hours. At 24 hours the medium was changed and E2 and DMSO vehicle or TPSF in DMSO was added.” for “hours.”

ERα [1] = molecular target: T1, ERα (Homo sapiens, UniProt P03372); experiment: PI-9 mRNA induction in tamoxifen-resistant MCF7ERαHA cells (qRT-PCR); assay type: cell-based; parameters: endogenous in cells; conditions: Dox
T1 sequence (P03372 1-595): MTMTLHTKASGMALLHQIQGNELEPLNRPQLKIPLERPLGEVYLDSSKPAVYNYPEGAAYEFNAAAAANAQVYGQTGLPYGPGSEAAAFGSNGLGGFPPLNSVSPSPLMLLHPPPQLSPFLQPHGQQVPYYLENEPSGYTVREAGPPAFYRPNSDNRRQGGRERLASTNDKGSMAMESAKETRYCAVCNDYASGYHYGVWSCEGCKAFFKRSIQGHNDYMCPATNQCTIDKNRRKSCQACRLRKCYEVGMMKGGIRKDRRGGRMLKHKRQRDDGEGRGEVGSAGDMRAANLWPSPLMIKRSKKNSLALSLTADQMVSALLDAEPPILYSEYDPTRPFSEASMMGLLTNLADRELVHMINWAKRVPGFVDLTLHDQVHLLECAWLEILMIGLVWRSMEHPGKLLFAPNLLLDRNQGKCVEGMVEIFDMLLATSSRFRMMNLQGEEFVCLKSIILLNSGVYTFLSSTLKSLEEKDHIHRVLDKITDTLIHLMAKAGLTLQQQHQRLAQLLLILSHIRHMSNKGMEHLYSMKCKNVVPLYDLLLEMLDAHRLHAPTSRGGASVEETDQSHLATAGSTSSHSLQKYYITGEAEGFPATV
Source text: A model for tamoxifen-resistant breast cancers that overexpress ERα is MCF7ERαHA cells, which is a tetracycline-inducible MCF-7 model in which doxycycline (Dox) induces overexpression of ERα (40,41). In contrast to MCF-7 cells, in these cells Tam and OHT are potent agonists (2,42) and OHT, which stabilizes ERα, induced proteinase inhibitor 9 (PI-9) mRNA and protein more effectively than E2 (2,43). MCF7ERαHA cells were maintained in 10% 6XCD-treated FBS (40,41). All cells were in 0.1% DMSO vehicle and contained the indicated concentrations of TPBM added at the same time as the E2 or OHT. To induce PI-9 mRNA, the cells were treated with 0.5 μg/ml doxycycline to induce ERα and ethanol vehicle, 100 pM E2 or 500 pM OHT for 24 h, mRNA was extracted and PI-9 mRNA levels were determined by quantitative RT-PCR as described (2).
Endogenous Gene Expression. MCF-7 cells or MCF7ERαHA cells were maintained for 4 days in medium containing 5% CD calf serum (MCF-7 cells) or 10% 6×CD-FBS (MCF7ERαHA cells). In assays of TPSF inhibition of PI-9 induction, cells were plated, incubated for 24 hours in the indicated concentrations of TPSF and then maintained 4 hours with and without E2, with and without TPSF. To induce ERα, MCF7ERαHA cells were also maintained in 0.5 μg/ml Dox for 24 hours prior to addition of E2 or OHT with or without TPSF. For induction of cyclin D1, 24 hours after plating the cells, E2 with and without TPSF was added, the cells were maintained for 24 hours, RNA was extracted and mRNA levels were determined by quantitative RT-PCR as described (19, 26). Actin mRNA levels were used as the qRT-PCR internal standard. The primers and sequences used in qRT-PCR were as follows.

ERα [2] = molecular target: T1, ERα; parameters: Using a stably transfected breast cancer cell line that expresses endogenous ERα; endogenous in cells; host or cells: T47D-KBluc; conditions: T47D cells, conditions identical to TPSF; see Mao C et al., 2008; read-out: IC50 for inhibition of E2-ERα-mediated (ERE)3-luciferase expression; cited from earlier work

For `Cn1c(=S)c2[nH]c(SCCCC(=O)c3ccc(F)cc3)nc2n(C)c1=O` [TPSF, Butyrophenone, p-fluoro-4-(1,2,3,6,-tetrahydro-1,3-dimethyl-2-oxo-6-thionopurin-8-ylthio)], the “effect on E2-ERα-dependent growth of MCF7ERαHA cells” value (MCF7ERαHA cells) was “inhibited”, the pIC50 (BT474 cells) was 5.80 and the pIC50 (ZR-75 cells) was 6.05. For the same compound, the “effect on E2-mediated induction of PI-9 mRNA” value (ERα [1]; 10 μM, 100 pM E2) was “blocked” and the “effect on OHT-ERα induction of PI-9 mRNA” value (ERα [1]; 10 μM, 500 pM OHT) was “blocked”.

In the case of `Cn1c(=O)c2nc(CSCc3ccccc3)[nH]c2n(C)c1=O` [Compound 95910, 8-Benzylsulfanylmethyl-1,3-dimethyl-3,7-dihydro-purine-2,6-dione], the “inhibition of OHT-ERα induction of PI-9 mRNA” value (ERα [1]; 30 μM, 500 pM OHT) is listed as 48%, the pIC50 (ERα [1]; 100 pM E2, 24 h, read-out: IC50 for inhibition of E2-ERα induction of PI-9 mRNA) is listed as 5.05 and 5.07 and the pIC50 (ERα [2]) is listed as 4.96.

— patent publication US8871751B2, “Compositions and methods relating to nuclear hormone and steroid hormone receptors including inhibitors of estrogen receptor alpha-mediated gene expression and inhibition of breast cancer” (The Board of Trustees of the University of Illinois, priority 2008, dated 2014)
